Results taken from the supplement of paper PMC6045584.
± gives the standard deviation of the averaged measurements.

Legend:
LAPATINIB = compound: CS(=O)(=O)CCNCc1ccc(-c2ccc3ncnc(Nc4ccc(OCc5cccc(F)c5)c(Cl)c4)c3c2)o1 [LAPATINIB]; assay: surviving fraction relative to DMSO-only wells; higher = less growth inhibition; settings: exposure time: 5 days
Method in brief: (§1)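 Surviving fraction is CellTiter-Glo luminescence divided by the median of wells given DMSO only. For this, log-phase tumour cell lines went into 384-well plates at 250–500 cells per well and, 24 hours later, into five days of continuous inhibitor exposure at 0.5, 1, 5, 10, 50, 100, 500 and 1000 nM. Lines were screened three times and retained only if replicate Pearson r >0.7 and median Z' >0.3.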

DECITABINE = compound: Nc1ncn([C@H]2C[C@H](O)[C@@H](CO)O2)c(=O)n1 [DECITABINE]; assay: as above; settings: exposure time: 5 days
Method in brief: as §1

Test System	surviving fraction (LAPATINIB; 0.5 nM)	surviving fraction (LAPATINIB; 1 nM)	surviving fraction (LAPATINIB; 5 nM)	surviving fraction (LAPATINIB; 10 nM)	surviving fraction (LAPATINIB; 50 nM)	surviving fraction (LAPATINIB; 100 nM)	surviving fraction (LAPATINIB; 500 nM)	surviving fraction (LAPATINIB; 1000 nM)	surviving fraction (DECITABINE; 0.5 nM)	surviving fraction (DECITABINE; 1 nM)	surviving fraction (DECITABINE; 5 nM)	surviving fraction (DECITABINE; 10 nM)	surviving fraction (DECITABINE; 50 nM)	surviving fraction (DECITABINE; 100 nM)	surviving fraction (DECITABINE; 500 nM)	surviving fraction (DECITABINE; 1000 nM)
SCC90 HEADNECK	1.02 ± 0.038	1.01 ± 0.1	1.01 ± 0.087	0.971 ± 0.04	0.845 ± 0.037	0.802 ± 0.067	0.532 ± 0.015	0.508 ± 0.023	0.985 ± 0.073	0.995 ± 0.065	1.11 ± 0.075	1.03 ± 0.072	1.13 ± 0.074	1.11 ± 0.018	1.3 ± 0.25	1.05 ± 0.17
SG27 HEADNECK	1.09 ± 0.081	1.09 ± 0.056	1.1 ± 0.27	1.18 ± 0.17	0.977 ± 0.14	1.04 ± 0.067	0.988 ± 0.026	1.06 ± 0.06	1.17 ± 0.15	1.12 ± 0.06	1.15 ± 0.14	1.07 ± 0.14	1.2 ± 0.065	1.18 ± 0.14	1.11 ± 0.063	1.19 ± 0.16
SG28 HEADNECK	0.979 ± 0.1	1.07 ± 0.03	0.851 ± 0.11	1.03 ± 0.042	0.764 ± 0.043	0.775 ± 0.079	0.599 ± 0.057	0.563 ± 0.021	1.14 ± 0.054	1.28 ± 0.038	1.2 ± 0.062	1.06 ± 0.098	1.25 ± 0.14	1.11 ± 0.045	1.11 ± 0.13	1.065 ± 0.0021
SG31 HEADNECK	1.17 ± 0.26	1.05 ± 0.18	0.799 ± 0.1	0.948 ± 0.093	0.699 ± 0.084	1.02 ± 0.27	0.775 ± 0.23	0.846 ± 0.21	1.27 ± 0.12	1.2 ± 0.059	1.14 ± 0.083	1.13 ± 0.1	1.08 ± 0.04	0.952 ± 0.11	1.01 ± 0.13	0.909 ± 0.095
SG32 HEADNECK	1.05 ± 0.22	1.02 ± 0.1	1.07 ± 0.14	1.12 ± 0.17	–	1.67 ± 0.82	0.905 ± 0.23	0.801 ± 0.18	1.25 ± 0.11	1.26 ± 0.16	1.12 ± 0.12	1.16 ± 0.067	1.25 ± 0.36	1.1 ± 0.14	0.908 ± 0.071	0.715 ± 0.064
SG43 HEADNECK	0.869 ± 0.17	0.93 ± 0.22	0.84 ± 0.095	0.821 ± 0.067	0.711 ± 0.23	0.494 ± 0.12	0.304 ± 0.011	0.314 ± 0.13	1.02 ± 0.031	1.14 ± 0.16	0.953 ± 0.11	1.03 ± 0.48	0.835 ± 0.18	0.868 ± 0.2	0.812 ± 0.062	0.8 ± 0.049
SIHA CERVIX	1.05 ± 0.033	1.14 ± 0.021	1.06 ± 0.02	1.11 ± 0.037	1.03 ± 0.031	1.02 ± 0.086	1.05 ± 0.06	1.1 ± 0.042	1.08 ± 0.026	0.979 ± 0.052	1.08 ± 0.02	1.05 ± 0.055	1.07 ± 0.055	1.08 ± 0.085	0.983 ± 0.055	0.988 ± 0.11
SJSA1 BONE	1.471 ± 0.007	1.67 ± 0.035	1.67 ± 0.09	1.72 ± 0.04	1.62 ± 0.095	1.47 ± 0.077	1.42 ± 0.022	1.75 ± 0.037	0.512 ± 0.028	1.53 ± 0.038	1.63 ± 0.11	0.545 ± 0.031	1.55 ± 0.081	1.68 ± 0.022	1.73 ± 0.05	1.77 ± 0.053
SKBR3 BREAST	1.07 ± 0.057	1.06 ± 0.04	1.12 ± 0.12	1.01 ± 0.054	0.697 ± 0.026	0.508 ± 0.03	0.233 ± 0.014	0.171 ± 0.021	1.02 ± 0.11	1.12 ± 0.0031	1.13 ± 0.035	0.959 ± 0.042	1.03 ± 0.094	1 ± 0.1	0.996 ± 0.017	0.931 ± 0.089
SNU475 LIVER	1.01 ± 0.013	1.03 ± 0.04	1.01 ± 0.027	0.992 ± 0.035	0.953 ± 0.042	1 ± 0.041	0.987 ± 0.047	0.954 ± 0.04	1.06 ± 0.024	1.05 ± 0.024	1.051 ± 0.0036	1.02 ± 0.026	1.03 ± 0.017	0.984 ± 0.038	1.03 ± 0.036	1.03 ± 0.032
SUM44 BREAST	1.05 ± 0.069	1.11 ± 0.19	1.11 ± 0.066	1.17 ± 0.21	1.04 ± 0.045	1.21 ± 0.17	1.08 ± 0.07	1.24 ± 0.18	1.15 ± 0.17	1.1 ± 0.16	1.17 ± 0.23	1.14 ± 0.17	1.31 ± 0.26	1.23 ± 0.15	1.13 ± 0.12	1.15 ± 0.069
SUM149 BREAST	0.945 ± 0.078	0.988 ± 0.11	0.943 ± 0.043	0.889 ± 0.12	0.741 ± 0.046	0.656 ± 0.019	0.492 ± 0.018	0.424 ± 0.047	1.11 ± 0.11	1.03 ± 0.13	0.845 ± 0.047	0.807 ± 0.09	0.366 ± 0.0027	0.359 ± 0.022	0.261 ± 0.0076	0.245 ± 0.012
SUM149.B1*.S BREAST	1.08 ± 0.049	1.23 ± 0.033	1.12 ± 0.023	1.11 ± 0.026	0.995 ± 0.06	1.07 ± 0.057	1.09 ± 0.035	1.05 ± 0.038	1.09 ± 0.037	1.03 ± 0.044	1.05 ± 0.06	0.98 ± 0.058	0.749 ± 0.062	0.66 ± 0.062	0.553 ± 0.043	0.496 ± 0.061
SUM159 BREAST	1.08 ± 0.022	1.13 ± 0.018	1.1 ± 0.037	1.07 ± 0.014	1.06 ± 0.029	1.1 ± 0.036	1.043 ± 0.01	1.03 ± 0.013	1.1 ± 0.024	1.079 ± 0.0093	1.09 ± 0.023	1.06 ± 0.017	1.05 ± 0.012	1.028 ± 0.004	1.03 ± 0.015	0.9957 ± 0.0076
SYO1 SYNOVIAL	0.992 ± 0.026	1.03 ± 0.08	0.976 ± 0.034	1.04 ± 0.041	0.938 ± 0.033	0.976 ± 0.032	0.966 ± 0.026	0.975 ± 0.021	0.991 ± 0.024	0.998 ± 0.021	0.933 ± 0.021	0.917 ± 0.022	0.663 ± 0.015	0.629 ± 0.013	0.439 ± 0.02	0.383 ± 0.0062
T47D BREAST	1.01 ± 0.068	1.07 ± 0.036	1.08 ± 0.072	1.07 ± 0.05	1.01 ± 0.019	1.04 ± 0.05	1 ± 0.041	1.01 ± 0.017	1.03 ± 0.049	1.06 ± 0.035	1.05 ± 0.029	1.04 ± 0.028	1.12 ± 0.049	1.08 ± 0.024	1.04 ± 0.049	1.06 ± 0.057
U2OS BONE	1.03 ± 0.031	1.034 ± 0.0044	1.08 ± 0.014	1.08 ± 0.027	1.03 ± 0.012	1.04 ± 0.024	0.9533 ± 0.0085	0.938 ± 0.037	1.02 ± 0.043	1.01 ± 0.052	1.04 ± 0.054	1.01 ± 0.021	0.992 ± 0.029	0.902 ± 0.045	0.679 ± 0.055	0.699 ± 0.013
VCAP PROSTATE	0.835 ± 0.089	0.828 ± 0.047	0.889 ± 0.21	1.15 ± 0.049	0.957 ± 0.07	0.901 ± 0.1	0.839 ± 0.035	0.956 ± 0.073	1.11 ± 0.099	1.17 ± 0.031	1.25 ± 0.14	1.18 ± 0.095	1.09 ± 0.035	1.09 ± 0.11	1.01 ± 0.094	0.875 ± 0.062
VP229 BREAST	1.23 ± 0.14	1.21 ± 0.039	1.21 ± 0.15	–	1.04 ± 0.11	0.92 ± 0.058	0.626 ± 0.019	0.436 ± 0.087	1.09 ± 0.062	1.13 ± 0.093	0.996 ± 0.13	0.952 ± 0.11	0.966 ± 0.067	0.959 ± 0.028	0.871 ± 0.056	0.798 ± 0.097
YAMATO SYNOVIAL	1.22 ± 0.066	1.31 ± 0.15	1.23 ± 0.12	1.24 ± 0.077	1.25 ± 0.16	1.31 ± 0.022	1.21 ± 0.16	1.13 ± 0.045	1.26 ± 0.05	1.11 ± 0.081	1.17 ± 0.086	0.995 ± 0.098	1.02 ± 0.081	1.04 ± 0.034	0.907 ± 0.034	0.811 ± 0.035
ZR751 BREAST	0.879 ± 0.09	0.898 ± 0.17	1.01 ± 0.08	1.1 ± 0.23	0.816 ± 0.069	0.785 ± 0.031	0.662 ± 0.038	0.746 ± 0.062	1.21 ± 0.096	1.2 ± 0.073	1.22 ± 0.11	1.05 ± 0.16	0.988 ± 0.12	1.13 ± 0.12	0.865 ± 0.012	0.866 ± 0.059
